Test results reported in ChEMBL document CHEMBL1201862, “PubChem BioAssay data set” (2004).
Active and inactive are the calls of the source.

Experiments:
[1] = HEp-2 cell cytotoxicity, dose response, cytotoxicity control for RSV inhibitor project, HTS (AID 2410); assay type: functional; conditions: human respiratory syncytial virus
[2] = target: Photoreceptor-specific nuclear receptor (Homo sapiens, UniProt Q9Y5X4); assay type: functional;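 further: potency for compounds that break the NR2E3 corepressor complex and count as activators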
Sequence of Photoreceptor-specific nuclear receptor (Q9Y5X4 whole entry): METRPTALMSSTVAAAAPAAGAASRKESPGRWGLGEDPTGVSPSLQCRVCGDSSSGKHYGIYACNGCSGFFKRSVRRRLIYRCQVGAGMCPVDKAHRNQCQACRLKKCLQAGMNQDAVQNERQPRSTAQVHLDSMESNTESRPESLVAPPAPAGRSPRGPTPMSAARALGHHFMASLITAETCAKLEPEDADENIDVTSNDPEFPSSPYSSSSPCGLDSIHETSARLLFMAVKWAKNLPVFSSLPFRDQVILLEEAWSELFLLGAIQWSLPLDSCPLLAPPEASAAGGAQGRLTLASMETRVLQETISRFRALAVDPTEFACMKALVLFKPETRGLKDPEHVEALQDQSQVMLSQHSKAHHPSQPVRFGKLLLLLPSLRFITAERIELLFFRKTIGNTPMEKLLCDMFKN

[3] = target: G-protein coupled receptor 55 (Homo sapiens, UniProt Q9Y2T6); assay: GPR55 antagonists blocking LPI-driven arrestin recruitment, primary screen, imaging, U2OS, beta-arrestin-GFP, LPI agonist (AID 2013); assay type: functional;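 further: antagonist potency measured as reduced agonist-driven arrestin aggregation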
[4] = target: Peroxisome proliferator-activated receptor gamma/Nuclear receptor corepressor 2 (Homo sapiens, UniProt P37231+Q9Y618); assay type: functional
[5] = cells
[6] = target: T1, Intestinal-type alkaline phosphatase (Mus musculus, UniProt P24822); assay: PubChem AID 488875; assay type: functional
T1 sequence (P24822 whole entry): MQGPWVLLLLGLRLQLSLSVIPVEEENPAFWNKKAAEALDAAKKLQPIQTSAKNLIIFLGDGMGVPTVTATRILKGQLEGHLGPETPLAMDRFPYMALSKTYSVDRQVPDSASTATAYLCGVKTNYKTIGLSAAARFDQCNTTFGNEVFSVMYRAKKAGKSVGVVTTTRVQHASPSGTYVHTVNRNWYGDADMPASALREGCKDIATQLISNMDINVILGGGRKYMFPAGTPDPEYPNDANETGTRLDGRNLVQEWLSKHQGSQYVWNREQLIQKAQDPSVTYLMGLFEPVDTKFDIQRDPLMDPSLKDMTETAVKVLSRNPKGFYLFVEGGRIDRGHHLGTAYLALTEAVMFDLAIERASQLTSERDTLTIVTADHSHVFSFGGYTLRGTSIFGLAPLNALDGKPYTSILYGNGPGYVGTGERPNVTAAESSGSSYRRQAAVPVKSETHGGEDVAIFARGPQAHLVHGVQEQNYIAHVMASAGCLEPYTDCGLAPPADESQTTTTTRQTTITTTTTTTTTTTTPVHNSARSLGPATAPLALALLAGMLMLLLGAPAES

[7] = target: T2, Intestinal-type alkaline phosphatase (Homo sapiens, UniProt P09923); assay: human intestinal alkaline phosphatase activators, dose response, biochemical, luminescence, uHTS hits (AID 463120); assay type: functional
T2 sequence (P09923 whole entry): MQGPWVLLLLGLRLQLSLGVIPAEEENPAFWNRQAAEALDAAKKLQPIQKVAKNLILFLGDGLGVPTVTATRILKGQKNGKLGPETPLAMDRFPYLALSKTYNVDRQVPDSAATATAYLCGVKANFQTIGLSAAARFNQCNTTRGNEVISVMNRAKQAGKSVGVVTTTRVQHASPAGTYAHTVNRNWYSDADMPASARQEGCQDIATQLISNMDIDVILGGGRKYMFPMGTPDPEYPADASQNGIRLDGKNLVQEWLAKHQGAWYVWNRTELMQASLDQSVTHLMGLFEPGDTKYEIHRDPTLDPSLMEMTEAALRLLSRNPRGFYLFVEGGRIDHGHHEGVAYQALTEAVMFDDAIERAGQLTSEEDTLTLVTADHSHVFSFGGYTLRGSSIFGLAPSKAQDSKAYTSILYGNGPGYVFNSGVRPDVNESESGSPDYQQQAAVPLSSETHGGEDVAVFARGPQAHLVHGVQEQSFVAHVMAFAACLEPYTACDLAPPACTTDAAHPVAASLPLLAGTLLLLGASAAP

[8] = target: T2, Intestinal-type alkaline phosphatase; assay: human IAP activators, dose response, biochemical, luminescent, uHTS hits, set 2 (AID 488817); assay type: functional;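 further: potency of activators that raise enzyme activity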
[9] = target: T3, Alkaline phosphatase, tissue-nonspecific isozyme (Homo sapiens, UniProt P05186); assay: TNAP enzyme activators, dose response, selectivity assay for human IAP activator project, biochemical, TNAP isozyme, human IAP uHTS hits (AID 488886); assay type: functional;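 further: potency of compounds raising TNAP activity as a selectivity check on IAP activators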
T3 sequence (P05186 whole entry): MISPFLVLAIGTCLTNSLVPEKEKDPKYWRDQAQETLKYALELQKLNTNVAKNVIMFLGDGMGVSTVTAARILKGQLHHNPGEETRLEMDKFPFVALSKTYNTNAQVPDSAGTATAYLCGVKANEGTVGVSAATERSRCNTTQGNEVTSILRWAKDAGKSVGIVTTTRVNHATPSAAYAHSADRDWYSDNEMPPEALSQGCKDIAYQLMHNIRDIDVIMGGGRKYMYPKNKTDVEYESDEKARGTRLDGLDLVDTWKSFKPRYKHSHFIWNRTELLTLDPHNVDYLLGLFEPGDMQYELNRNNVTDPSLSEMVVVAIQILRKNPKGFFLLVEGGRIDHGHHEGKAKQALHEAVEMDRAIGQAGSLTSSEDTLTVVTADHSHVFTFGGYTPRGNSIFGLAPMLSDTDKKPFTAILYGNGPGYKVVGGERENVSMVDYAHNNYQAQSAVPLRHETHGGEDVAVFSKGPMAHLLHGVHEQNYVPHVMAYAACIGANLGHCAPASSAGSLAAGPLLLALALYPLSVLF

[10] = target: T4, Type-1 angiotensin II receptor (Homo sapiens, UniProt P30556); assay: AT1 receptor agonists, dose response, selectivity assay for APJ receptor agonist project, cell-based, uHTS hits (AID 488865); assay type: functional;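 further: beta-arrestin recruitment to AT1 measured by enzyme fragment complementation luminescence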
T4 sequence (P30556 whole entry): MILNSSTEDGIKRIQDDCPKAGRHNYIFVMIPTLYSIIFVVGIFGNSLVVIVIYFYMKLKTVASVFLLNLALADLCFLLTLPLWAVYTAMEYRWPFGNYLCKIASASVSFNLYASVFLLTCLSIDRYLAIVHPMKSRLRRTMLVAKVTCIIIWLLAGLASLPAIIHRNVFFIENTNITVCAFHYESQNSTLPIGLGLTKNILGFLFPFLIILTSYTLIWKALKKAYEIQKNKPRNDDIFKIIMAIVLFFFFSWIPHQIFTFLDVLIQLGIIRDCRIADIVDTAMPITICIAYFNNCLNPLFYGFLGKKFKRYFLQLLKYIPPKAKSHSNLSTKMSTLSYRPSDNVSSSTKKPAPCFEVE

[11] = target: T2, Intestinal-type alkaline phosphatase; assay: activation of human intestinal alkaline phosphatase – biochemical, dose response (AID 488873); assay type: functional
[12] = target: Alkaline phosphatase, placental type (Homo sapiens, UniProt P05187); assay: PLAP enzyme inhibitors, confirmation, biochemical, luminescence (AID 1512); assay type: functional
Sequence of Alkaline phosphatase, placental type (P05187 whole entry): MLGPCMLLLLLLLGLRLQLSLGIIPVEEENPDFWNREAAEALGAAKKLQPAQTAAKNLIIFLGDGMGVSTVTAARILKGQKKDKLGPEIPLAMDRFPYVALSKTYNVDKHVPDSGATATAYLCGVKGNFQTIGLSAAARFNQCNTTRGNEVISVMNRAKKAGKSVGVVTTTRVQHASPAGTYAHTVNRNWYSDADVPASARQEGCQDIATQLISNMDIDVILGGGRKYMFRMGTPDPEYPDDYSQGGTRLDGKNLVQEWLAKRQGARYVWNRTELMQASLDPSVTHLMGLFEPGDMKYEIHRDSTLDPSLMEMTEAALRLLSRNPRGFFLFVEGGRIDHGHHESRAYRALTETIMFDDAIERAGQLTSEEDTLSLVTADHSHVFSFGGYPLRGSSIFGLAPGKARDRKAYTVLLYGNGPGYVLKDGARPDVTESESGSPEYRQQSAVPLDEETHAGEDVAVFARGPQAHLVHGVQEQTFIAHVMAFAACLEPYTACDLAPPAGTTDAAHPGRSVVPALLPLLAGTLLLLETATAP

[13] = target: T3, Alkaline phosphatase, tissue-nonspecific isozyme; assay: human TNAP enzyme inhibitors, SAR follow-up, biochemical, luminescent, dose response (AID 1056)
[14] = target: T1, Intestinal-type alkaline phosphatase; assay: mouse intestinal alkaline phosphatase activators, dose response, biochemical, luminescence, uHTS hits (AID 488783); assay type: functional
[15] = target: T3, Alkaline phosphatase, tissue-nonspecific isozyme; assay: TNAP enzyme activators, dose response, selectivity assay for mouse IAP activator project, biochemical, TNAP isozyme, mouse IAP uHTS hits (AID 488880); assay type: functional
[16] = target: T5, Rac GTPase-activating protein 1 (Homo sapiens, UniProt Q9H0H5); assay: MgcRacGAP GTPase-activating activity inhibitors, confirmation, biochemical, ADP Hunter fluorescence, primary and confirmatory (AID 624330); assay type: functional
T5 sequence (Q9H0H5 whole entry): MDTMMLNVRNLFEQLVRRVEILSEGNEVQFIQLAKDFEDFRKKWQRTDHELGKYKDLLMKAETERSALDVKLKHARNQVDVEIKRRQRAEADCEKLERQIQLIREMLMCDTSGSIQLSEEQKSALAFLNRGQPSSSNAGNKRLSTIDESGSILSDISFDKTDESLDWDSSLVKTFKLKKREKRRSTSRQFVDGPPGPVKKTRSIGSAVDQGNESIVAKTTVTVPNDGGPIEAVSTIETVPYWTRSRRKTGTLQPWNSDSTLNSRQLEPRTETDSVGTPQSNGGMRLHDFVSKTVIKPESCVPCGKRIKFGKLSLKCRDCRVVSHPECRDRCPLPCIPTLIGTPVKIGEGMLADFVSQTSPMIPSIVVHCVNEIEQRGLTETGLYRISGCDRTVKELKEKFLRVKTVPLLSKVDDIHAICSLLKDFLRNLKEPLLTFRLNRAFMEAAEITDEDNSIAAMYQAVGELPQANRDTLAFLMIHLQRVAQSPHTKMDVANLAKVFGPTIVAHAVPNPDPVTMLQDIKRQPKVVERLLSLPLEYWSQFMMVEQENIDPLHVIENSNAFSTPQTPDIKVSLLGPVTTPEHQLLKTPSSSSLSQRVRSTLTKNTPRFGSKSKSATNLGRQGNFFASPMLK

[17] = target: Induced myeloid leukemia cell differentiation protein Mcl-1 (Homo sapiens, UniProt Q07820); assay type: functional
Sequence of Induced myeloid leukemia cell differentiation protein Mcl-1 (Q07820 whole entry): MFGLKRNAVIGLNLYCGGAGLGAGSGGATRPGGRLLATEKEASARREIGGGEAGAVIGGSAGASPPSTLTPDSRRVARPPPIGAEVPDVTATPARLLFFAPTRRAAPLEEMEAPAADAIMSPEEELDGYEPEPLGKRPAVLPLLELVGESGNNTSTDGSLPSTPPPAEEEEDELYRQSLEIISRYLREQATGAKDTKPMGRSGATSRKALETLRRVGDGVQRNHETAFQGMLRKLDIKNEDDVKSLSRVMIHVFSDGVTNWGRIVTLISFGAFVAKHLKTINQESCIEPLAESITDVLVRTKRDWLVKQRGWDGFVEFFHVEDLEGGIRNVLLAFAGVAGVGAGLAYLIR

[18] = target: T6, ORF 73 (Human herpesvirus 8, UniProt O40947); assay: inhibitors of C-LANA binding to LBS DNA, dose response, biochemical, fluorescence polarization, cherry-picked samples (AID 504725); design: species or system Human gammaherpesvirus 8;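 further: fluorescence polarization of a labeled DNA duplex reporting LANA DNA binding; potency is for inhibitors that block LANA binding to the DNA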
T6 sequence (O40947 whole entry): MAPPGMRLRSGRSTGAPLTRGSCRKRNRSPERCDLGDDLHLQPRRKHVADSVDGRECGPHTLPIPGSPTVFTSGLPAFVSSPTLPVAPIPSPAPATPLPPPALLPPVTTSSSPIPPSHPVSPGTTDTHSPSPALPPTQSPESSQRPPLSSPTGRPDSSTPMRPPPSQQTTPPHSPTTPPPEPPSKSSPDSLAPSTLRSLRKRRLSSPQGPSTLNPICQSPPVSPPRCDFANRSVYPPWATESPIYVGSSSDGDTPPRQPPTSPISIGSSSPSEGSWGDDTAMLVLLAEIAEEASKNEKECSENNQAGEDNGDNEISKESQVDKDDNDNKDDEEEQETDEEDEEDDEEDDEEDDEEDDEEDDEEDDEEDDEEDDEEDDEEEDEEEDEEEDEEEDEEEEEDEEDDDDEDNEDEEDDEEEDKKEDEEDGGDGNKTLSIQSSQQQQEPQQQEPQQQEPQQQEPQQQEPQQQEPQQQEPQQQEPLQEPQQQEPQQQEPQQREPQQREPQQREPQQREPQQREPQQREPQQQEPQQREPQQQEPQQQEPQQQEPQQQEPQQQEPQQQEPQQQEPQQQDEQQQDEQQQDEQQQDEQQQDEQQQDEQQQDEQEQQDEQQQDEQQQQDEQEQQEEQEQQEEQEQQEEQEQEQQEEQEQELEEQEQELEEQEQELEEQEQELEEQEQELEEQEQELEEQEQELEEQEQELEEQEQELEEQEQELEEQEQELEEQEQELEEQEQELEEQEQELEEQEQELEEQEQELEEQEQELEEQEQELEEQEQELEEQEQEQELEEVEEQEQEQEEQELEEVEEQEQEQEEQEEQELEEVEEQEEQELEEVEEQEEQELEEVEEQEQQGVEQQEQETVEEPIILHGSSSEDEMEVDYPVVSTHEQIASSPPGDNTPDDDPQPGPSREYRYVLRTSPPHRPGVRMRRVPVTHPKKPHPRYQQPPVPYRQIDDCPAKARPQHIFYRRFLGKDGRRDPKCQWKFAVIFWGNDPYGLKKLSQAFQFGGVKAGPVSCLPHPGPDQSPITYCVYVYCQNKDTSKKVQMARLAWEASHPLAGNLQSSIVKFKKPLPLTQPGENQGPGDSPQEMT

[19] = target: Troponin, cardiac muscle (Homo sapiens, UniProt P19429+P45379+P63316); assay: inhibitors of cardiac thin filament calcium sensitivity, dose response, biochemical, fluorescence, cardiac regulated thin filaments, triplicate IC50 (AID 504742); assay type: protein-complex assay
[20] = target: T7, Endoribonuclease toxin MazF (Escherichia coli K-12, UniProt P0AE70); assay: MazF toxin RNase activators, dose response, biochemical, fluorescence, single-stranded RNA substrate, uHTS hits (AID 588481); assay type: functional
T7 sequence (P0AE70 whole entry): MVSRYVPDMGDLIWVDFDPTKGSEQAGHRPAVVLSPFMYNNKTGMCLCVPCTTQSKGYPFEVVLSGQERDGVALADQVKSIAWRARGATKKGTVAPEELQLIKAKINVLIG

[21] = target: T7, Endoribonuclease toxin MazF; assay: fluorescent RNA oligo signal without MazF, dose response, counter-screen for MazEF activator project, biochemical, fluorescence, single-stranded RNase substrate (AID 588502); assay type: functional
[22] = target: Genome polyprotein (dengue virus type 2, UniProt P29990); assay: Dengue-2 NS5 methyltransferase inhibitors, primary screen, biochemical, confirmation dose response (AID 588689); assay type: functional
[23] = target: T8, Long-chain-fatty-acid--AMP ligase FadD28 (Mycobacterium tuberculosis, UniProt P9WQ59); assay: Fluorescence polarization aasay to screen for inhibitors that compete for the binding of FadD28 to a bisubstrate Measured in Biochemical System Using Plate Reader - 2147-01_Inhibitor_Dose_CherryPick_Activity.; assay type: functional, Mycobacterium tuberculosis H37Rv
T8 sequence (P9WQ59 whole entry): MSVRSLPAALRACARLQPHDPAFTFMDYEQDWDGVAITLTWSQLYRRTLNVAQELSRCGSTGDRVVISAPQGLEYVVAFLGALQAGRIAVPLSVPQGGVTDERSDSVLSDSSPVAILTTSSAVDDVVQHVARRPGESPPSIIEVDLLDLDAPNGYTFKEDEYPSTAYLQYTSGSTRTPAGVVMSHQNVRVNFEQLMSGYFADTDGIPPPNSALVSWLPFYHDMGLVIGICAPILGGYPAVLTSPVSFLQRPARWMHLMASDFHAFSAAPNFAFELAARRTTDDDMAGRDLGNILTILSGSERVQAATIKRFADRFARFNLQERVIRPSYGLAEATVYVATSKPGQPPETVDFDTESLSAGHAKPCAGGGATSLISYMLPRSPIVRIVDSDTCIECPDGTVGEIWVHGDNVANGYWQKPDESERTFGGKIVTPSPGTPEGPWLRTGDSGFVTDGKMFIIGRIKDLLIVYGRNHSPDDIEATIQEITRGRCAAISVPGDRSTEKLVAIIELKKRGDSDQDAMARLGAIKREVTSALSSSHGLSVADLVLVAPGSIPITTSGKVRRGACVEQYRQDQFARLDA

[24] = target: T9, Caspase-6 (Homo sapiens, UniProt P55212); assay: human caspase-6 inhibitors, dose response, biochemical, VEID-R110 fluorescence, cherry-pick (AID 720632)
T9 sequence (P55212 whole entry): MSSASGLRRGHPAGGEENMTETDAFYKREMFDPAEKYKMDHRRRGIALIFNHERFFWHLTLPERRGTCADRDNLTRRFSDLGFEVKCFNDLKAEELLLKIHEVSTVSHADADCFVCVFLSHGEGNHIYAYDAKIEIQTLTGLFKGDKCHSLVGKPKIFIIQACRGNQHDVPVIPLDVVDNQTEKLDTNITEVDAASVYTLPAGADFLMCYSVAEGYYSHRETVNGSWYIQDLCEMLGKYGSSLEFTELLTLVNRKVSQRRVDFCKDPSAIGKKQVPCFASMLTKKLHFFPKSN

[25] = target: Caspase-7 (Homo sapiens, UniProt P55210); assay: human caspase-7 inhibitors, dose response, selectivity assay for caspase-6 inhibitor project, biochemical, DEVD-R110 fluorescence, cherry-pick (AID 743295)
[26] = target: 1-phosphatidylinositol 4,5-bisphosphate phosphodiesterase gamma-1 (Homo sapiens, UniProt P19174); assay: Counterscreen for inhibitors of phospholipase C isozymes (PLC-B3): Fluorescence-based biochemical high throughput dose response assay to identify inhibitors of phospholipase C isozymes (PLC-gamma1).
Sequence of 1-phosphatidylinositol 4,5-bisphosphate phosphodiesterase gamma-1 (P19174 whole entry): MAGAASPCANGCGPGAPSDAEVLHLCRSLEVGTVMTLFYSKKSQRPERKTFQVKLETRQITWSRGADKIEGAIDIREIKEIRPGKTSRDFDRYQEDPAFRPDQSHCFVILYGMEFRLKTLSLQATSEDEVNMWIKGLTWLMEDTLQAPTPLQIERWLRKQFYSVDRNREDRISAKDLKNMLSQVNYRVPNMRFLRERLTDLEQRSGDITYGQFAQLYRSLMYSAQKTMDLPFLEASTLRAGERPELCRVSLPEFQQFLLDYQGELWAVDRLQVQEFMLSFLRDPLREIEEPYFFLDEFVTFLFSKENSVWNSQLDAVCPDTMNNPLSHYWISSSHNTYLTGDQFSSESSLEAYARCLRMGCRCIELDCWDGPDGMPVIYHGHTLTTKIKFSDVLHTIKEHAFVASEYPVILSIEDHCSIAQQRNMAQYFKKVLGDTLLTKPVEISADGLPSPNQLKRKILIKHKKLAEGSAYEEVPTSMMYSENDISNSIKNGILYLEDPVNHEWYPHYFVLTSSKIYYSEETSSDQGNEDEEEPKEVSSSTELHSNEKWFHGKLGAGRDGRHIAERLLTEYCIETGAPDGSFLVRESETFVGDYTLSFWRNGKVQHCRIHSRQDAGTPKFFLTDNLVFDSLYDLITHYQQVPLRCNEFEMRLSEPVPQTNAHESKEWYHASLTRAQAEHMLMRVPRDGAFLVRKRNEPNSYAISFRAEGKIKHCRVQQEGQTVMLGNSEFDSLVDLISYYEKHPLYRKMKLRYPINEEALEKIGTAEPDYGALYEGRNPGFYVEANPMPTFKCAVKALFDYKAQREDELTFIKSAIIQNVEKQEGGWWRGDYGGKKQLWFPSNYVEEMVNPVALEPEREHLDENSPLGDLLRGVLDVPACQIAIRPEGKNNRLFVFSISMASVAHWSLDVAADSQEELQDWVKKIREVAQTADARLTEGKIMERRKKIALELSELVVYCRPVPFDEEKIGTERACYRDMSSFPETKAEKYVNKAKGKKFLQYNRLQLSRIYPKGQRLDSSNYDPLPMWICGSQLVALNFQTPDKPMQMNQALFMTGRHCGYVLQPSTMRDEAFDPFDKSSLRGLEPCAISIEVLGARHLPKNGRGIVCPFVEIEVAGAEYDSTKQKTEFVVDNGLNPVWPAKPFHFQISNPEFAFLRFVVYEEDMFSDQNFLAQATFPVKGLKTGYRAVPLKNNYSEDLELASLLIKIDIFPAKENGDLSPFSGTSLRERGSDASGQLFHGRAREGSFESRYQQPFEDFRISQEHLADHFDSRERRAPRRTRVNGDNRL

[27] = target: 1-phosphatidylinositol 4,5-bisphosphate phosphodiesterase beta-3 (Homo sapiens, UniProt Q01970); assay: Fluorescence-based biochemical high throughput dose response assay to identify inhibitors of phospholipase C isozymes (PLC-B3).
Sequence of 1-phosphatidylinositol 4,5-bisphosphate phosphodiesterase beta-3 (Q01970 whole entry): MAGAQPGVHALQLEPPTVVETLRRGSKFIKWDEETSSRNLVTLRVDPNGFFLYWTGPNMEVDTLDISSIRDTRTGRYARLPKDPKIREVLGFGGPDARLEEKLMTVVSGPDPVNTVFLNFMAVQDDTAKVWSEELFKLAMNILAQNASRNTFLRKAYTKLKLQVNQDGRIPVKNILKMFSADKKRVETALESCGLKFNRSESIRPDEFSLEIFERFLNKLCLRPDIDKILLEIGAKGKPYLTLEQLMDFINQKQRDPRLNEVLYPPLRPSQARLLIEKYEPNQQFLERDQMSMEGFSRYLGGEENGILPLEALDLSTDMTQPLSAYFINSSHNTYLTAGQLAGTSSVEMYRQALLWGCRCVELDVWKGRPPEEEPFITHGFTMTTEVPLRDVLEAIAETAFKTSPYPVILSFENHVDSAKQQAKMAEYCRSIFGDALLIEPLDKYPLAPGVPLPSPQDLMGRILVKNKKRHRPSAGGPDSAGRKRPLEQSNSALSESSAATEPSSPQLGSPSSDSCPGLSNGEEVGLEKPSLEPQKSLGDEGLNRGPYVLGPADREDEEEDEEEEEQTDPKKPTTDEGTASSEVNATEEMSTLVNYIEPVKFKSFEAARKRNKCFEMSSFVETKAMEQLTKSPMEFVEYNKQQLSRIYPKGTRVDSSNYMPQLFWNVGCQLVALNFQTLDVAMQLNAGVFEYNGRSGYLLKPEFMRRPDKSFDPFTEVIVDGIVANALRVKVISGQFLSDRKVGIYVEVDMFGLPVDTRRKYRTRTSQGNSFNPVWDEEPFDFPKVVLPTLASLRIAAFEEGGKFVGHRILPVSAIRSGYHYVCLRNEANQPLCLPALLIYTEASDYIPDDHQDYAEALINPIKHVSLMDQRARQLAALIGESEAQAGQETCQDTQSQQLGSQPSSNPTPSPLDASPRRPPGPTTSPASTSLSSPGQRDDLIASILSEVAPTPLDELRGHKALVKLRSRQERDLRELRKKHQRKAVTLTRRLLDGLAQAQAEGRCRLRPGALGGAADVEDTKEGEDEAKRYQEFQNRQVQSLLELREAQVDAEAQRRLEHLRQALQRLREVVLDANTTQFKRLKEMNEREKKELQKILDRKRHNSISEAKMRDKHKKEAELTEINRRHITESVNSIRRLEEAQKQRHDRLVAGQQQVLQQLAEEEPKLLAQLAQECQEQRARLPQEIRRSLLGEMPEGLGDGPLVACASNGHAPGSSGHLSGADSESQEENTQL

COC(=O)c1cc2c(-c3ccccc3)c(C)c3ccccn3c-2c1C(=O)OC
CC50 [1]: 27 µM (active)
IC50 [2]: > 1.48 µM (active)
IC50 [3]: 2.58 µM (active)
IC50 [4]: 1.31 µM (active)
IC50 [5]: 23.4 µM (active)

COc1ccc(OC)c(NC(=O)c2cc(-c3cc(C)ccc3O)n[nH]2)c1
EC50 [6]: > 100 µM (inactive)
EC50 [7]: 15.1 µM (active)
EC50 [8]: 20.8 µM (active)
EC50 [9]: 18.5 µM (active)

COC/C=C/C1=CC2=CC(=O)C(C)(OC(=O)c3cnc4ccccc4n3)C(=O)C2=CN1c1ccccc1 (configuration not stated)
EC50 [10]: > 100 µM (inactive)

C=CCn1c(SCC(=O)c2ccc(O)c(O)c2)nnc1-c1cccc(OC)c1
EC50 [11]: > 100 µM (inactive)
IC50 [12]: 5.55 µM (active)
IC50 [13]: 17.4 µM (active)
EC50 [14]: 100 µM (inactive)
EC50 [15]: 68 µM (active)
IC50 [16]: 77.7 µM (active)

O=c1oc2c(cc1O)oc(=O)c1cc(O)c(O)c(O)c12
IC50 [17]: > 54 µM (active)
AC50 [18]: 18.9 µM (active)
IC50 [19]: 3.19 µM (active)
EC50 [20]: 80.5 µM (inactive)
EC50 [21]: > 99 µM (inactive)
IC50 [22]: > 100 µM (active)
AC50 [23]: 98.7 µM (active)
AC50 [24]: 0.484 µM (active)
AC50 [25]: 2.35 µM (active)
IC50 [26]: > 123 µM (inactive)
IC50 [27]: > 123 µM (inactive)
